According to patent US8895585B2, “Nicotinamide derivative or salt thereof” (FUJIFILM Corporation, priority 2010, dated 2014):

These compounds were tested against T1, glutathione S-transferase (GST)-fused full-length human Syk protein (Homo sapiens, UniProt P43405) (assay: Syk enzyme assay). Details: Syk enzyme assay, Test Example 1; read-out: IC50 of Syk-inhibitory activity.
T1 construct: (GST)-fused full-length human Syk protein; GST (glutathione S-transferase); purchased Carna Biosciences
Type: biochemical
Procedure: A glutathione S-transferase (GST)-fused full-length human Syk protein (Carna Biosciences), which had been generated using a Baculovirus expression system, was used in the Syk enzyme assay.
15 μl of a reaction solution (1.2 ng Syk, 20 mM HEPES, 10 mM MgCl2, 50 mM NaCl, 2 mM DTT, 0.05% BSA, pH 7.0) containing a Syk protein and a predetermined concentration of a test compound was shaken for 2 minutes, and it was then left at rest at room temperature for 13 minutes. Thereafter, 5 μl of Biotin-EDPDYEWPSA-NH2 (final concentration: 0.4 μM) serving as a substrate peptide and 5 μl of ATP (final concentration: 27 μM) were added to the reaction solution, and the obtained mixture was then shaken for 2 minutes. The reaction solution was further left at rest at room temperature for 40 minutes, so as to carry out an enzyme reaction.
Thereafter, 50 μl of a reaction termination solution [5 μg/ml Streptavidin, 0.18 μg/ml PT66-K, 30 mM HEPES (pH 7.0), 150 mM KF, 75 mM EDTA, 0.15% BSA, 0.075% Tween20], which contained Streptavidin-Xlent (Cisbio) and Mab PT66-K (Cisbio), was added to the reaction solution to terminate the enzyme reaction. At the same time, the reaction solution was left at rest at room temperature for 1 hour, so as to carry out an antigen-antibody reaction. Thereafter, using EnVision (PerkinElmer), the time-resolved fluorescence was measured at 615 nm and 665 nm, so that the phosphorylation of the substrate peptide was measured.
In addition, the following are standards for evaluating IC50 of Syk-inhibitory activity used in Table 21. • A: Up to 10 nM • B: 10 to 50 nM • C: 50 to 100 nM • D: 100 to 1000 nM The set of numbers (XYZ-xyz) given in each Example number column indicates the corresponding Example number (Example XYZ-xyz) in Table 21.

Q: How did the IC50 turn out when `COC(C)CCOc1ncc(Nc2nc(N[C@@H]3CCCC[C@@H]3N)c(F)cc2C(N)=O)c2ccccc12` (relative stereo) [Example 004-151, 6-(cis-2-aminocyclohexylamino)-5-fluoro-2-((1-(3-methoxybutoxy)isoquinolin-4-yl)amino)-nicotinamide] was run?
A: 100 to 1000 nM

Q: For `CCOCCOCCOc1ncc(Nc2nc(N[C@@H]3CCCC[C@@H]3N)c(F)cc2C(N)=O)c2ccccc12` (relative stereo) [Example 004-152, 6-(cis-2-aminocyclohexylamino)-2-((1-(2-(2-ethoxyethoxy)ethoxy)isoquinolin-4-yl)amino)-5-fluoronicotinamide], which IC50 is on record?
A: 100 to 1000 nM

Q: For `COc1ncc(Nc2nc(N[C@@H]3CCCC[C@@H]3N)c(F)cc2C(N)=O)c2ccccc12` (relative stereo) [Example 004-153, 6-(cis-2-aminocyclohexylamino)-5-fluoro-2-((1-methoxyisoquinolin-4-yl)amino)-nicotinamide], which IC50 is on record?
A: 100 to 1000 nM

Q: Which IC50 does the source give for `COCC(C)Oc1ncc(Nc2nc(N[C@@H]3CCCC[C@@H]3N)c(F)cc2C(N)=O)c2ccccc12` (relative stereo) [Example 004-154, 6-(cis-2-aminocyclohexylamino)-5-fluoro-2-((1-((1-methoxypropan-2-yl)oxy)isoquinolin-4-yl)amino)nicotinamide] here?
A: 100 to 1000 nM

Q: `COc1nccc2c(Nc3nc(N[C@@H]4CCCC[C@@H]4N)c(F)cc3C(N)=O)cccc12` (relative stereo) [Example 004-155, 6-(cis-2-aminocyclohexylamino)-5-fluoro-2-((1-methoxyisoquinolin-5-yl)amino)-nicotinamide] was tested. Which IC50 did it give?
A: < 10 nM

Q: For `COCC(C)Oc1nccc2c(Nc3nc(N[C@@H]4CCCC[C@@H]4N)c(F)cc3C(N)=O)cccc12` (relative stereo) [Example 004-156, 6-(cis-2-aminocyclohexylamino)-5-fluoro-2-((1-((1-methoxypropan-2-yl)oxy)isoquinolin-5-yl)amino)nicotinamide], which IC50 is on record?
A: < 10 nM

Q: With `COC(C)CCOc1nccc2c(Nc3nc(N[C@@H]4CCCC[C@@H]4N)c(F)cc3C(N)=O)cccc12` (relative stereo) [Example 004-157, 6-(cis-2-aminocyclohexylamino)-5-fluoro-2-((1-(3-methoxybutoxy)isoquinolin-5-yl)amino)-nicotinamide] as the compound, how does the IC50 read?
A: 10 to 50 nM

Q: For `CCOCCOCCOc1nccc2c(Nc3nc(N[C@@H]4CCCC[C@@H]4N)c(F)cc3C(N)=O)cccc12` (relative stereo) [Example 004-158, 6-(cis-2-aminocyclohexylamino)-2-((1-(2-(2-ethoxyethoxy)ethoxy)isoquinolin-5-yl)amino)-5-fluoronicotinamide], which IC50 is on record?
A: 10 to 50 nM

Q: For `CCOc1nccc2cc(Nc3nc(N[C@@H]4CCCC[C@@H]4N)c(F)cc3C(N)=O)ccc12` (relative stereo) [Example 004-165, 6-(cis-2-aminocyclohexylamino)-2-((1-ethoxyisoquinolin-6-yl)amino)-5-fluoronicotinamide], which IC50 is on record?
A: < 10 nM

Q: With `CC(C)Oc1nccc2cc(Nc3nc(N[C@@H]4CCCC[C@@H]4N)c(F)cc3C(N)=O)ccc12` (relative stereo) [Example 004-166, 6-(cis-2-aminocyclohexylamino)-5-fluoro-2-((1-isopropoxyisoquinolin-6-yl)amino)-nicotinamide] as the compound, how does the IC50 read?
A: < 10 nM

Q: With `CC(C)COc1nccc2cc(Nc3nc(N[C@@H]4CCCC[C@@H]4N)c(F)cc3C(N)=O)ccc12` (relative stereo) [Example 004-167, 6-(cis-2-aminocyclohexylamino)-5-fluoro-2-((1-isobutoxyisoquinolin-6-yl)amino)-nicotinamide] as the compound, how does the IC50 read?
A: < 10 nM

Q: Which IC50 does the source give for `CCOCCOCCOc1nccc2cc(Nc3nc(N[C@@H]4CCCC[C@@H]4N)c(F)cc3C(N)=O)ccc12` (relative stereo) [Example 004-169, 6-(cis-2-aminocyclohexylamino)-2-((1-(2-(2-ethoxyethoxy)ethoxy)isoquinolin-6-yl)amino)-5-fluoronicotinamide] here?
A: < 10 nM

Q: `CC(C)COCCOc1nccc2cc(Nc3nc(N[C@@H]4CCCC[C@@H]4N)c(F)cc3C(N)=O)ccc12` (relative stereo) [Example 004-170, 6-(cis-2-aminocyclohexylamino)-5-fluoro-2-((1-(2-isobutoxyethoxy)isoquinolin-6-yl)amino)-nicotinamide] was tested. Which IC50 did it give?
A: < 10 nM

Q: With `NC(=O)c1cc(F)c(N[C@@H]2CCCC[C@@H]2N)nc1Nc1ccc2c(OCC3CCCO3)nccc2c1` (relative stereo) [Example 004-171, 6-(cis-2-aminocyclohexylamino)-5-fluoro-2-((1-((tetrahydrofuran-2-yl)-methoxy)isoquinolin-6-yl)amino)nicotinamide] as the compound, how does the IC50 read?
A: < 10 nM

Q: How did the IC50 turn out when `CCOc1ccc2cc(Nc3nc(N[C@@H]4CCCC[C@@H]4N)c(F)cc3C(N)=O)cnc2c1` (relative stereo) [Example 004-173, 6-(cis-2-aminocyclohexylamino)-2-((7-ethoxyquinolin-3-yl)amino)-5-fluoronicotinamide] was run?
A: < 10 nM

Q: How did the IC50 turn out when `CCCOc1ccc2cc(Nc3nc(N[C@@H]4CCCC[C@@H]4N)c(F)cc3C(N)=O)cnc2c1` (relative stereo) [Example 004-174, 6-(cis-2-aminocyclohexylamino)-5-fluoro-2-((7-propoxyquinolin-3-yl)amino)nicotinamide] was run?
A: < 10 nM

Q: For `CCOc1cnc2cc(Nc3nc(N[C@@H]4CCCC[C@@H]4N)c(F)cc3C(N)=O)ccc2n1` (relative stereo) [Example 004-176, 6-(cis-2-aminocyclohexylamino)-2-((2-ethoxyquinoxalin-6-yl)amino)-5-fluoronicotinamide], which IC50 is on record?
A: < 10 nM

Q: Which IC50 does the source give for `CCCOc1cnc2cc(Nc3nc(N[C@@H]4CCCC[C@@H]4N)c(F)cc3C(N)=O)ccc2n1` (relative stereo) [Example 004-177, 6-(cis-2-aminocyclohexylamino)-5-fluoro-2-((2-propoxyquinoxalin-6-yl)amino)nicotinamide] here?
A: 10 to 50 nM

Q: How did the IC50 turn out when `COCCOc1cnc2cc(Nc3nc(N[C@@H]4CCCC[C@@H]4N)c(F)cc3C(N)=O)ccc2n1` (relative stereo) [Example 004-178, 6-(cis-2-aminocyclohexylamino)-5-fluoro-2-((2-(2-methoxyethoxy)quinoxalin-6-yl)amino)-nicotinamide] was run?
A: 10 to 50 nM

Q: With `COCCOCCOc1cnc2cc(Nc3nc(N[C@@H]4CCCC[C@@H]4N)c(F)cc3C(N)=O)ccc2n1` (relative stereo) [Example 004-179, 6-(cis-2-aminocyclohexylamino)-5-fluoro-2-((2-(2-(2-methoxyethoxy)ethoxy)quinoxalin-6-yl)amino)nicotinamide] as the compound, how does the IC50 read?
A: < 10 nM

Q: `CCOc1ccccc1-c1cncc(Nc2nc(N[C@@H]3CCCC[C@@H]3N)c(F)cc2C(N)=O)c1` (relative stereo) [Example 004-182, 6-(cis-2-aminocyclohexylamino)-2-((5-(2-ethoxyphenyl)pyridin-3-yl)amino)-5-fluoronicotinamide] was tested. Which IC50 did it give?
A: < 10 nM

Q: Which IC50 does the source give for `CC(C)COc1ccccc1-c1cncc(Nc2nc(N[C@@H]3CCCC[C@@H]3N)c(F)cc2C(N)=O)c1` (relative stereo) [Example 004-183, 6-(cis-2-aminocyclohexylamino)-5-fluoro-2-((5-(2-isobutoxyphenyl)pyridin-3-yl)amino)-nicotinamide] here?
A: 50 to 100 nM

Q: With `COCCOc1ccccc1-c1cncc(Nc2nc(N[C@@H]3CCCC[C@@H]3N)c(F)cc2C(N)=O)c1` (relative stereo) [Example 004-185, 6-(cis-2-aminocyclohexylamino)-5-fluoro-2-((5-(2-(2-methoxyethoxy)phenyl)pyridin-3-yl)amino)nicotinamide] as the compound, how does the IC50 read?
A: < 10 nM

Q: With `NC(=O)c1cc(F)c(N[C@@H]2CCCC[C@@H]2N)nc1Nc1cncc(-c2ccccc2O)c1` (relative stereo) [Example 004-186, 6-(cis-2-aminocyclohexylamino)-5-fluoro-2-((5-(2-hydroxyphenyl)pyridin-3-yl)amino)nicotinamide] as the compound, how does the IC50 read?
A: < 10 nM

Q: With `NC(=O)c1cc(F)c(N[C@@H]2CCCC[C@@H]2N)nc1Nc1cncc(COCc2ccccc2)c1` (relative stereo) [Example 004-189, 6-(cis-2-aminocyclohexylamino)-2-((5-((benzyloxy)methyl)pyridin-3-yl)amino)-5-fluoronicotinamide] as the compound, how does the IC50 read?
A: 50 to 100 nM

Q: How did the IC50 turn out when `NC(=O)c1cc(F)c(N[C@@H]2CCCC[C@@H]2N)nc1Nc1ccnc(COCc2ccccc2)c1` (relative stereo) [Example 004-192, 6-(cis-2-aminocyclohexylamino)-2-((2-((benzyloxy)methyl)pyridin-4-yl)amino)-5-fluoronicotinamide] was run?
A: 50 to 100 nM

Q: Which IC50 does the source give for `NC(=O)c1cc(F)c(N[C@@H]2CCCC[C@@H]2N)nc1Nc1cncc(CO)c1` (relative stereo) [Example 004-193, 6-(cis-2-aminocyclohexylamino)-5-fluoro-2-((5-(hydroxymethyl)pyridin-3-yl)amino)nicotinamide] here?
A: 50 to 100 nM
